Test results reported in patent US10774112B2, “Biomimetic peptide and biodegradable delivery platform for the treatment of angiogenesis- and lymphangiogenesis-dependent diseases” (THE JOHNS HOPKINS UNIVERSITY, priority 2013, dated 2020).

Assays:
[1] = tested on: human umbilical vein endothelial cells (HUVEC); assay: Migration assay (RT-CIM), HUVEC; format: cell-based; details: FIG. 1
Description: The inhibitory potential of the peptides was measured using a real time migration assay system based on electrical impedance (RT-CIM, ACEA Biosciences, CA). CIM 16 well plates (Roche, 05665817001) are composed of a top and bottom chamber separated by a microporous (8 μm) polycarbonate membrane. The membrane was coated with fibronectin (20 μg/mL), and 45,000 cells/well in serum free media with or without peptides were added to the top compartment. Media with chemoattractant (i.e., fully supplemented EBM-2) was added to the bottom compartment of the chamber and the plate was incubated at 37° C. for 20 hours. The sensors integrated on the bottom side of the membrane monitor and continuously record changes in impedance as the cells move through the membrane. The RT-CIM technology allows for easy quantification of cell migration by monitoring the cell index derived from the measured impedances. Assays were performed in at least two independent replicates and each replicate was performed using two experimental duplicates. Breast cancer cells MDA-MB-231 are not suitable for the RT-CIM type experiments due to their thin elongated phenotype, thus the inhibition of migration was investigated using a wound healing type assay. This assay was performed using the Oris Pro Migration assay (Platypus Technologies, CMA 1.101). […]

HUVEC = HUVEC tube formation assay; format: cell-based, human; details: 25 μM peptide; FIG. 3 A-B
Description: Tube Formation Inhibition Assays.
The compositions also were tested for their ability to inhibit tube formation, a process critical in angiogenesis. Endothelial cells spontaneously form a network of tubes when plated on extracts of extracellular matrix. This in vitro assay combines aspects of adhesion and migration and it is routinely used in angiogenesis research (Oliveira-Ferrer et al., 2008). The ability to inhibit tube formation is a comprehensive assessment of the anti-angiogenic potential. The protocol was described by Arnaoutova et al. (2009) and it consists of plating HUVEC on top of basement membrane extract. After incubation at 37° C., the cells naturally rearrange themselves in a network of tubes. Thus, 50 μL/well of Matrigel (BD Biosciences, San Jose, Calif.) was plated in a cold 96 well plate and incubated at 37° C. for 30 min for polymerization. 15,000 cells/well were added to the top of the gel and incubated in complete media in the presence or absence of peptide for 19 hours. Images were captured using the CCD Sensicam mounted on a Nikon microscope (Eclipse T-100). Assays were performed in at least two independent replicates and each replicate was performed using three experimental replicates and one image of a randomly chosen field was acquired per well.

[2] = tested on: lymphatic endothelial cell (LEC); assay: LEC adhesion assay; format: cell-based; details: FIG. 4
Description: Similar to the migration assays, the inhibition activity of the peptide in cellular adhesion was assessed using the RT-CIM technology. In this case, 25,000 cells/well were plated in 16 wells E-plates (Roche, Basel Switzerland) in the presence or absence of the peptide. The adhesion was monitored over time (3 hours) by measuring changes in the electrical impedance, which is a direct measure of the cells adhering on the electrodes. Assays were performed in at least two independent replicates and each replicate was performed using two experimental duplicates.

[3] = tested on: hepatocyte growth factor (HGF) signaling; assay: HGF signaling in vitro in LEC; format: cell-based; details: FIG. 6
[4] = tested on: insulin growth factor 1 (IGF1) signaling; assay: IGF1 signaling in vitro in LEC; format: cell-based; details: FIG. 6
[5] = tested on: MDA-MB-231 orthotopic tumors; assay: MDA-MB-231 orthotopic tumor xenografts in SCID mice; format: in vivo; details: 33 days, 20 mg of SP2043/kg, intraperitoneal injection, FIG. 9
Description: Orthotopic breast tumors were initiated in SCID mice using human triple-negative breast cancer cells MDA-MB-231. 2×10^6 cells per 100 μL aliquot of single cell suspension were injected in the breast mammary fat pad. Tumors reached volumes of 75-100 mm^3 in approximately 14-21 days. Mice were randomized and arranged in groups (8 mice per group) with similar tumor volumes (no statistical difference among averages) and treatment was commenced. […] Tumors were measured every fourth day using calipers and the tumor volume was calculated using the formula V=ab^2/2, where “a” is the larger and “b” is the smaller diameter.

[6] = tested on: choroidal neovascularization; assay: Laser induced choroidal neovascularization (CNV) model; format: in vivo, mice
Description: Mouse Model of Choroidal Neovascularization (CNV).
Laser photocoagulation-induced rupture of Bruch's membrane was used to generate CNV. Briefly, 4-5 week old female C57BL/6J mice were anesthetized with xylazine hydrochloride (10 mg/kg) and ketamine hydrochloride (50 mg/kg) and the pupils were dilated with 1% tropicamide (Alcon Labs, Inc., Fort Worth, Tex., USA). Three burns of 532-nm diode laser photocoagulation (75 μm spot size, 0.1 s duration, 120 mW) were delivered to each retina using the slit lamp delivery system of an OcuLight GL Photocoagulator (Index, Mountain View, Calif., USA) and a hand-held cover slide as a contact lens. Burns were performed in the 9, 12 and 3 o'clock positions of the posterior pole of the retina. Production of a bubble at the time of laser photocoagulation, which indicates rupture of Bruch's membrane, is an important factor in obtaining CNV, so only burns in which a bubble was produced were included in the study. Treatments were begun seven days after laser photocoagulation and included intravitreous injections of 0.1% of SP2043 (SEQ ID NO: 1) (1 μg in a volume of 1 μL), 1% ([…] in a volume of 1 μL of SP2043 (SEQ ID NO: 1)) or vehicle under a dissecting microscope with a Harvard Pump Microinjection System (Harvard Apparatus, Holliston, Mass.) and pulled glass micropipettes. Some mice were euthanized for baseline measurement. Fourteen days after laser, the remaining mice were used to measure the amount of CNV at Bruch's membrane rupture sites. Two weeks after rupture of Bruch's membrane, mice were anesthetized and perfused with fluorescein-labeled dextran (2×10^6 average mol wt, Sigma-Aldrich, St. Louis, Mo., USA) and choroidal flat mounts were prepared as described previously. Briefly, the eyes were removed, fixed for 1 h in 10% phosphate-buffered formalin, and the cornea and lens were removed. […] Flat mounts were examined by fluorescence microscopy using an Axioskop microscope (Zeiss, Thornwood, N.Y., USA) and images were digitized using a 3 CCD color video camera (IK-TU40A, Toshiba, Tokyo, Japan) and a frame grabber. […]

Sequence: LRRFSTAPFAFIDINDVINF (Artificial sequence based on human Collagen Type IV protein) [SP2043]
- migration of HUVEC [1]: inhibit
- HUVEC tube formation (HUVEC): inhibit
- lymphatic endothelial cell adhesion [2]: inhibit
- HGF signaling in LEC [3]: inhibit
- IGF1 signaling in LEC [4]: inhibit
- inhibition of tumor growth [5]: about 82%
- effect in combination with other anti-angiogenesis agents, such as aflibercept ([6]; laser-induced choroidal neovascularization model in mice, FIG. 28): increased effect
- neovascularization in laser induced CNV model ([6]; mouse, FIGS. 13A-B): inhibited
- potency in laser induced CNV model compared with aflibercept ([6]; mouse, FIGS. 13A-B): more potently than aflibercept
